According to PubChem BioAssay (NCI):
Several values for one entry are separate records, joined by “and”; a condition that tells them apart may be missing. Identical values can stand only once.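 Step 1: Grow cells in 96-well plates. Step 2: Expose to compound for 48 hours at 5 concentrations. Step 3: Interpolate endpoints linearly; if unreached, use highest concentration. GI50 marks 50% less growth. The concentration for full growth arrest is given as TGI.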

Experiments:
Test in all cases: NCI-60 cell line screen, 48 h
CCRF-CEM leukemia = tested on: CCRF-CEM leukemia
HOP-62 NSCLC = tested on: HOP-62 NSCLC
HT29 colon = tested on: HT29 colon
IGROV1 ovarian = tested on: IGROV1 ovarian
K-562 leukemia = tested on: K-562 leukemia
KM12 colon = tested on: KM12 colon
LOX IMVI melanoma = tested on: LOX IMVI melanoma
NCI-H23 lung = tested on: NCI-H23 lung
NCI-H226 lung = tested on: NCI-H226 lung
SR leukemia = tested on: SR leukemia

Compound | TGI (CCRF-CEM leukemia) | TGI (HOP-62 NSCLC) | TGI (HT29 colon) | TGI (IGROV1 ovarian) | TGI (K-562 leukemia) | TGI (KM12 colon) | TGI (LOX IMVI melanoma) | TGI (NCI-H23 lung) | GI50 (HOP-62 NSCLC) | GI50 (LOX IMVI melanoma) | GI50 (NCI-H226 lung) | TGI (NCI-H226 lung) | GI50 (CCRF-CEM leukemia) | GI50 (KM12 colon) | GI50 (NCI-H23 lung) | GI50 (HT29 colon) | GI50 (IGROV1 ovarian) | GI50 (K-562 leukemia) | GI50 (SR leukemia) | TGI (SR leukemia)
O=C(N/C(=C\c1ccc([N+](=O)[O-])cc1)c1nc2ccccc2s1)c1ccccc1 | 66.3 µM | > 100 µM | > 100 µM | > 100 µM | 59.2 µM | 92.1 µM | 46.5 µM | 61.7 µM |  |  |  |  |  |  |  |  |  |  |  | 
C/C=C/C=C/c1cc2cc3c(c(O)c2c(=O)[nH]1)C1(CC3)C(O)=c2c(=O)c3c(=O)cc(OC)c(=O)c=3c(=O)c2=C1O (stereo not drawn) | 1.13 µM and 11.2 µM | 4.49 µM and 8.28 µM | 1.37 µM and 13.5 µM | 10.6 µM and 15.3 µM | > 38.4 µM | 16.5 µM | 9.5 µM | 10.1 µM and 8.27 µM | 0.327 µM and 1.15 µM | 1.27 µM | 0.23 µM and 0.895 µM | 3.71 µM and 8.42 µM |  |  |  |  |  |  |  | 
CCN(CC)CCOC(COc1cc(C)cc(C)c1)COc1cc(C)cc(C)c1 | 8.24 µM | 18.5 µM |  |  |  | 11.7 µM | 2.73 µM | 14.7 µM | 2.72 µM | 1.31 µM | 7.16 µM | 23.9 µM | 2.25 µM | 3.04 µM | 2.36 µM |  |  |  |  | 
Cc1cc(Cl)ccc1N=C1NC(=O)C(CC(=O)Nc2cccc(Cl)c2)S1 (stereo not drawn) | > 100 µM | > 100 µM | > 100 µM | > 100 µM | > 100 µM | > 100 µM | > 100 µM | > 100 µM |  |  |  | > 100 µM |  |  |  |  |  |  |  | 
CCOc1ccc2nc(NC(=O)C(=O)C3C(=O)C(CC4C(=O)c5ccccc5C4=O)C(=O)CC3(C)C)sc2c1 (stereo not drawn) | 70.1 µM | > 100 µM | > 100 µM | > 100 µM |  | > 100 µM | > 100 µM | > 100 µM |  |  |  | > 100 µM |  |  |  |  |  |  |  | 
N=C(N)c1ccc2oc3ccc(C(=N)N)cc3c(=O)c2c1 | > 100 µM |  | > 100 µM | > 100 µM | > 100 µM | > 100 µM |  | > 100 µM |  |  |  | > 100 µM |  |  |  |  |  |  |  | 
CCn1cc(C(=O)O)c(=O)c2cc(F)c(N3CCN(S(=O)(=O)c4ccc(Cl)cc4Cl)CC3)cc21 | > 100 µM | 9.95 µM | > 100 µM | 5.08 µM | > 100 µM | > 100 µM | 3.08 µM | 5.97 µM | 3.08 µM | 1.48 µM | 2.6 µM | 7.88 µM | 3.03 µM | 3.42 µM | 2.33 µM | 3.63 µM | 2.33 µM | 4 µM |  | 
CC1[C@@]2(CCC(C)(C)O2)O[C@@H]2C=C3C4CCC5Cc6nc7c(nc6C[C@@]5(C)C4C[C@H](O)[C@@]3(C)[C@]12O)CC1CCC2C3=C[C@H]4O[C@@]5(O[C@@](C)(CO)C[C@@H]5O)C(C)[C@@]4(O)[C@]3(C)[C@@H](O)CC2[C@]1(C)C7 (stereo partly drawn) | 0.106 µM and 0.018 µM |  |  | 0.59 µM | 0.44 µM and 0.445 µM | 0.624 µM and 0.572 µM | 0.695 µM and 0.366 µM |  | 0.000389 µM | 0.0106 µM | 0.0107 µM | 0.411 µM and 0.806 µM | 0.0017 µM | 0.0446 µM | 0.00308 µM | 0.00179 µM | 0.00831 µM | 0.0103 µM |  | 
COc1cc(C2CC(c3ccccc3)=NN2C=O)ccc1Oc1ccnc2cc(Cl)ccc12 (stereo not drawn) |  | 36.3 µM | > 100 µM | > 100 µM |  | > 100 µM | > 100 µM | > 100 µM | 12.4 µM | > 100 µM | 5.24 µM | > 100 µM |  | > 100 µM | 4.82 µM | > 100 µM | 35 µM |  | > 100 µM | > 100 µM
CC(=O)CCC1(c2ccccc2)OC(=O)C(C#N)=C1c1ccccc1 (stereo not drawn) | > 100 µM | > 100 µM | > 100 µM | > 100 µM | > 100 µM | > 100 µM | > 100 µM | > 100 µM |  |  |  |  |  |  |  |  |  |  |  | 
CCc1ccc2c(c1)C(=O)c1c-2n(CCCN)c(=O)c2cc(OC)c(OC)cc12 | 2.48 µM | 3.29 µM | 2.98 µM | 3.36 µM | 0.907 µM | 3.15 µM | 2.73 µM | 3.3 µM | 1.84 µM | 1.36 µM | 21 µM | 42.5 µM | 1.1 µM | 1.41 µM | 1.81 µM | 1.56 µM | 1.76 µM | 0.306 µM |  | 
NC(=NCCCCCCN=C(N)/N=C(\N)Nc1ccc(Cl)cc1)/N=C(\N)Nc1ccc(Cl)cc1 |  | 4.06 µM | 5.18 µM | 3.16 µM |  | 1.74 µM | 2.19 µM | 3.59 µM | 1.33 µM | 0.958 µM | 1.79 µM | 9.12 µM |  | 0.927 µM | 1.16 µM | 1.62 µM | 1.28 µM |  | 0.945 µM | 2.37 µM
COC(=O)[C@@]12OC[C@]34[C@H]([C@@H](O)[C@@H]1O)[C@@]1(C)CC(=O)C(O)=C(C)[C@@H]1C[C@H]3OC(=O)[C@H](OC(=O)/C=C(\C)C(C)C)[C@@H]24 | 0.0184 µM and 0.182 µM | 0.0342 µM and < 0.011 µM and 0.0216 µM | 0.0161 µM and 0.0718 µM | 0.0153 µM and 0.059 µM |  | 0.03 µM and 0.146 µM and 0.0574 µM |  | 0.015 µM and 0.0688 µM |  |  |  | 0.00771 µM and 0.0236 µM | 0.00224 µM |  |  |  |  |  |  | 0.0369 µM
COc1cc(N=Nc2cc(Cc3ccc(N(C)C)cc3)c(N)cc2N(C)C)c2ncccc2c1 | 2.29 µM |  | 2.4 µM | 1.57 µM | 1.74 µM | 2.31 µM | 1.87 µM | 1.34 µM |  | 0.465 µM | 0.754 µM | 8.28 µM | 0.126 µM | 0.646 µM | 0.287 µM | 0.0607 µM | 0.364 µM | 0.139 µM |  | 
COC(=O)c1c(C)nc(C)c2c1C(=O)C(Br)=C(NCc1ccccc1)C2=O | 36.8 µM | 10.8 µM | 7.96 µM | 5.45 µM | > 100 µM | 13.4 µM | 10.8 µM | 5.19 µM | 3.12 µM | 2.45 µM | 4.01 µM | 18 µM | 3.11 µM | 2.93 µM | 1.89 µM | 2.97 µM | 2.05 µM | 3.36 µM |  | 
COC(=O)C(=O)C(C(=O)C(=O)Nc1ccc([N+](=O)[O-])cc1)c1nc2ccccc2[nH]c1=O (stereo not drawn) | > 100 µM | > 100 µM | > 100 µM | > 100 µM | > 100 µM | > 100 µM | > 100 µM | > 100 µM |  |  |  | > 100 µM |  |  |  |  |  |  |  | 
COc1cc2c(oc(=O)c3c4occc4cc(OC)c23)c2cccc(O)c12 | > 100 µM | > 100 µM | > 100 µM | > 100 µM | > 100 µM | > 100 µM | > 100 µM | > 100 µM |  |  |  | > 100 µM |  |  |  |  |  |  |  | 
